# Earlier results as cited in patent US20210212962A1, “METHODS AND COMPOSITIONS FOR THE TREATMENT OF GRANULOMA ANNULARE OR SUBCUTANEOUS INFLAMMATION AND NON-INFECTION GRANULOMATOUS DISEASES” (Sol-Gel Technologies Ltd., priority 2020, published 2021).
# Conditions: known for tapinarof treatments
smiles,measurement,value
"CC(C)c1c(O)cc(/C=C/c2ccccc2)cc1O [tapinarof, 3,5-dihydroxy-4-isopropyl-trans-stilbene]",folliculitis as a side effect in tapinarof treatments,10%
